How the values were obtained:
[1] = target: T1, human Adenosine A1 receptor (Homo sapiens, UniProt P30542); experiment: GTPγS scintillation proximity assay, agonist testing; assay type: biochemical; settings: agonist activity; membrane extracts of CHO-K1 cells expressing recombinant human A1; read-out: A1AR EC50
T1 construct: host or cells: CHO-K1
T1 sequence (P30542 1-326): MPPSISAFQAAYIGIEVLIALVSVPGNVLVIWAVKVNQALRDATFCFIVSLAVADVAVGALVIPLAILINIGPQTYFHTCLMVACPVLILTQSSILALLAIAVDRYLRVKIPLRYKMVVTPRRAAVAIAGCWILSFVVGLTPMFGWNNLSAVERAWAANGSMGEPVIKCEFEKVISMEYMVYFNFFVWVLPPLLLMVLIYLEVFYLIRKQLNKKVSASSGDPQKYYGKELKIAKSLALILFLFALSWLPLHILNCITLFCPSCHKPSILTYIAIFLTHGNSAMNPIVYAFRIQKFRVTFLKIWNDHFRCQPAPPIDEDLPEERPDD
How it was run: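 Agonist-stimulated [35S]GTPγS binding to membranes of CHO-K1 cells expressing recombinant human A1 receptor, in 20 mM HEPES pH 7.4, 100 mM NaCl, 10 μg/mL saponin, with receptor-optimized MgCl2 and GDP. GTPγ[35S] 0.1 nM final with WGA SPA beads; 1 h at room temperature, then scintillation counting.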

human A2B = target: T2, human A2B (Homo sapiens, UniProt P29275); experiment: cAMP HTRF assay for Gs coupled receptor, agonist test; assay type: cell-based; settings: agonist activity; HEK293 cells expressing recombinant human A2B; read-out: A2BAR EC50
T2 construct: expressed in transfected cells; host or cells: HEK293
T2 sequence (P29275 1-332): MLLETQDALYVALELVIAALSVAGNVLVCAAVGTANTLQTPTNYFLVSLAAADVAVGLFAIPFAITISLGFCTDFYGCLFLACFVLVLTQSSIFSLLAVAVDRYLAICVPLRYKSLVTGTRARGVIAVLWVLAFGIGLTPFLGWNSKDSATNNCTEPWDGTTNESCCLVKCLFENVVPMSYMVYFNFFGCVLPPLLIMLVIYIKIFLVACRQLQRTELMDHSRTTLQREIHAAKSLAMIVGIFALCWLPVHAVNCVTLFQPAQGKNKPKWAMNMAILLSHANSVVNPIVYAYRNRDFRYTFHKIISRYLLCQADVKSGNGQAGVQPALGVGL
How it was run: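 Recombinant cells were incubated 30 min at room temperature with increasing agonist concentrations. Lysis buffer with cAMP-d2 and anti-cAMP cryptate was added, with 1 h at room temperature before the HTRF fluorescence ratio was read. Reference compounds were run in parallel.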

Compound | EC50 [1] [nM] | EC50 (human A2B) [nM]
N#Cc1c(N)nc(SCc2cccnc2)c(C#N)c1-c1ccc(O[C@H]2C[C@@H](O)C2)cc1 [Compound 296, 2-Amino-4-(4-((1s,3s)-3-hydroxycyclobutoxy)phenyl)-6-((pyridin-3-ylmethyl)thio)pyridine-3,5-dicarbonitrile] | 20.6 | 2.47
N#Cc1c(N)nc(SCC2COCOC2)c(C#N)c1-c1ccc(OC2COC2)cc1 [Compound 297] | 1100 | > 10000
N#Cc1c(N)nc(OCC2CCOCC2)c(C#N)c1-c1ccc(OC2COC2)cc1 [Compound 298] | 229 | > 10000
N#Cc1c(N)nc(OCC2CCCCO2)c(C#N)c1-c1ccc(OC2COC2)cc1 (stereo not shown) [Compound 299] | > 10000 | > 10000
N#Cc1c(N)nc(OCC2CCCOC2)c(C#N)c1-c1ccc(OC2COC2)cc1 (stereo not shown) [Compound 300, 2-Amino-4-(4-(oxetan-3-yloxy)phenyl)-6-((tetrahydro-2H-pyran-3-yl)methoxy)pyridine-3,5-dicarbonitrile] | 1150 | > 10000
N#Cc1c(N)nc(SCC2COCCO2)c(C#N)c1-c1ccc(OC2COC2)cc1 (stereo not shown) [Compound 301] | 228 | > 10000
Cn1ccc2c(CSc3nc(N)c(C#N)c(-c4ccc(OC5COC5)cc4)c3C#N)cccc21 [Compound 302] | 64.8 | 894
N#Cc1c(N)nc(SCC2COC2)c(C#N)c1-c1ccc(O[C@H]2C[C@H](O)C2)cc1 [Compound 303] | 78.5 | > 10000
N#Cc1c(N)nc(SCC2OCCO2)c(C#N)c1-c1ccc(OC2COC2)cc1 [Compound 304] | 167 | > 10000
N#Cc1c(N)nc(SCC2CCOCC2)c(C#N)c1-c1ccc(OC2COC2)cc1 [Compound 305] | 140 | 1120
COCC(F)(F)Oc1ccc(-c2c(C#N)c(N)nc(SCc3cccnc3)c2C#N)cc1 [Compound 306] | 353 | > 10000
N#Cc1c(N)nc(OCCC2COC2)c(C#N)c1-c1ccc(OC2COC2)cc1 [Compound 307] | > 10000 | > 10000
N#Cc1c(N)nc(SCC2COC2)c(C#N)c1-c1ccc(OC2CCCOC2)cc1 (stereo not shown) [Compound 308] | > 10000 | 5570
N#Cc1c(N)nc(SCc2cccnc2)c(C#N)c1-c1ccc(OC(F)(F)CO)cc1 [Compound 309] | 6.48 | 0.962
COCC(F)(F)Oc1ccc(-c2c(C#N)c(N)nc(SCC3COC3)c2C#N)cc1 [Compound 310] | > 10000 | > 10000
N#Cc1c(N)nc(SCC2COC2)c(C#N)c1-c1ccc(OC(F)(F)CO)cc1 [Compound 311, 2-Amino-4-[4-(1,1-difluoro-2-hydroxy-ethoxy)phenyl]-6-(oxetan-3-ylmethylsulfanyl)pyridine-3,5-dicarbonitrile] | 7.18 | > 10000

Compound | EC50 [1] [nM] | EC50 (human A2B) [nM]
N#Cc1c(N)nc(OCC2COC2)c(C#N)c1-c1ccc(OC2COC2)cc1 [Compound 312, 2-Amino-6-(oxetan-3-ylmethoxy)-4-(4-(oxetan-3-yloxy)phenyl)pyridine-3,5-dicarbonitrile] | 204 | > 10000
N#Cc1c(N)nc(SCC2(O)COC2)c(C#N)c1-c1ccc(OCCO)cc1 [Compound 313] | 55 | > 10000
CNc1nc(SCC2COC2)c(C#N)c(-c2ccc(OC3COC3)cc2)c1C#N [Compound 314] | 5.16 | > 10000
N#Cc1c(N)nc(SCC2(O)COC2)c(C#N)c1-c1ccc(OC2COC2)cc1 [Compound 315] | 81.8 | > 10000
CC(O)COc1ccc(-c2c(C#N)c(N)nc(SCC3COC3)c2C#N)cc1 (stereo not shown) [Compound 316] | 10.8 | 305
CC(C)(O)COc1ccc(-c2c(C#N)c(N)nc(SCC3COC3)c2C#N)cc1 [Compound 317] | 88.7 | > 10000
CN(C)c1nc(SCC2COC2)c(C#N)c(-c2ccc(OC3COC3)cc2)c1C#N [Compound 318] | 32.1 | > 10000
N#Cc1c(N)nc(SCC2COC2)c(C#N)c1-c1ccc(OCCO)cc1 [Compound 319] | 1.53 | 401
N#Cc1c(N)nc(SCC2(F)COC2)c(C#N)c1-c1ccc(OCCO)cc1 [Compound 320] | 230 | > 10000
COC1CC(Oc2ccc(-c3c(C#N)c(N)nc(SCC4CCOC4)c3C#N)cc2)C1 (stereo not shown) [Compound 321] | > 10000 | > 10000
COC1CC(Oc2ccc(-c3c(C#N)c(N)nc(SCC4COC4)c3C#N)cc2)C1 (stereo not shown) [Compound 323] | 227 | > 10000
N#Cc1c(N)nc(SCC2CCOC2)c(C#N)c1-c1ccc(OC2CC(O)C2)cc1 (stereo not shown) [Compound 324] | 21.3 | > 10000
N#Cc1c(N)nc(SCCC(F)(F)F)c(C#N)c1-c1ccc(OC2CCCOC2)cc1 (stereo not shown) [Compound 325] | > 10000 | > 10000
N#Cc1c(N)nc(SCC2CCOC2)c(C#N)c1-c1ccc(OC2CCCOC2)cc1 (stereo not shown) [Compound 326] | > 10000 | > 10000
CC1(CSc2nc(N)c(C#N)c(-c3ccc(OC4COC4)cc3)c2C#N)COC1 [Compound 327] | 22.1 | > 10000
N#Cc1c(N)nc(SCCC(F)(F)F)c(C#N)c1-c1ccc(O[C@H]2C[C@H](O)C2)cc1 [Compound 328] | > 10000 | > 10000
